Measured values reported in ChEMBL document CHEMBL1201861, “Genomics of Drug Sensitity in Cancer screening data, Wellcome Trust Sanger Institute”.

Tests used:
Assay in all cases: cells
KP-4 = assay type: functional, cell-based, Homo sapiens; conditions: Homo sapiens, KP-4; read-out: IC50
Description: SANGER: Inhibition of human KP-4 cell growth in a cell viability assay.

HT-1080 = assay type: functional, cell-based, Homo sapiens; conditions: Homo sapiens, HT-1080
Description: SANGER: Inhibition of human HT-1080 cell growth in a cell viability assay.

IST-MES1 = assay type: functional, cell-based, Homo sapiens; conditions: Homo sapiens, IST-MES1
Description: SANGER: Inhibition of human IST-MES1 cell growth in a cell viability assay.

NCI-H1993 = assay type: functional, cell-based, Homo sapiens; conditions: Homo sapiens, NCI-H1993
Description: SANGER: Inhibition of human NCI-H1993 cell growth in a cell viability assay.

EKVX = assay type: functional, cell-based, Homo sapiens; conditions: Homo sapiens, EKVX
Description: SANGER: Inhibition of human EKVX cell growth in a cell viability assay.

HLE = assay type: functional, cell-based, Homo sapiens; conditions: Homo sapiens, HLE
Description: SANGER: Inhibition of human HLE cell growth in a cell viability assay.

OE33 = assay type: functional, cell-based, Homo sapiens; conditions: Homo sapiens, OE33
Description: SANGER: Inhibition of human OE33 cell growth in a cell viability assay.

LB2241-RCC = assay type: functional, cell-based, Homo sapiens; conditions: Homo sapiens, LB2241-RCC
Description: SANGER: Inhibition of human LB2241-RCC cell growth in a cell viability assay.

SNB-75 = assay type: functional, cell-based, Homo sapiens; conditions: Homo sapiens, SNB-75
Description: SANGER: Inhibition of human SNB75 cell growth in a cell viability assay.

NUGC-3 = assay type: functional, cell-based, Homo sapiens; conditions: Homo sapiens, NUGC-3
Description: SANGER: Inhibition of human NUGC-3 cell growth in a cell viability assay.

SW1088 = assay type: functional, cell-based, Homo sapiens; conditions: Homo sapiens, SW1088
Description: SANGER: Inhibition of human SW1088 cell growth in a cell viability assay.

DBTRG-05MG = assay type: functional, cell-based, Homo sapiens; conditions: Homo sapiens, DBTRG-05MG
Description: SANGER: Inhibition of human DBTRG-05MG cell growth in a cell viability assay.

KM-H2 = assay type: functional, cell-based; conditions: Homo sapiens
Description: SANGER: Inhibition of human KM-H2 cell growth in a cell viability assay.

KG-1 = assay type: functional, cell-based; conditions: Homo sapiens
Description: SANGER: Inhibition of human KG-1 cell growth in a cell viability assay.

MDA-MB-361 = assay type: functional, cell-based, Homo sapiens; conditions: Homo sapiens, MDA-MB-361
KYSE-140 = assay type: functional, cell-based, Homo sapiens; conditions: Homo sapiens, KYSE-140
Description: SANGER: Inhibition of human KYSE-140 cell growth in a cell viability assay.

D-392MG = assay type: functional, cell-based, Homo sapiens; conditions: Homo sapiens, D-392MG
EGI-1 = assay type: functional, cell-based, Homo sapiens; conditions: Homo sapiens, EGI-1
Description: SANGER: Inhibition of human EGI-1 cell growth in a cell viability assay.

RCC10RGB = assay type: functional, cell-based, Homo sapiens; conditions: Homo sapiens, RCC10RGB
Description: SANGER: Inhibition of human RCC10RGB cell growth in a cell viability assay.

SW13 = assay type: functional, cell-based, Homo sapiens; conditions: Homo sapiens, SW13
Description: SANGER: Inhibition of human SW13 cell growth in a cell viability assay.

SW48 = assay type: functional, cell-based, Homo sapiens; conditions: Homo sapiens, SW48
Description: SANGER: Inhibition of human SW48 cell growth in a cell viability assay.

Daoy = assay type: functional, cell-based, Homo sapiens; conditions: Homo sapiens, Daoy
Description: SANGER: Inhibition of human Daoy cell growth in a cell viability assay.

IA-LM = assay type: functional, cell-based, Homo sapiens; conditions: Homo sapiens, IA-LM
Description: SANGER: Inhibition of human IA-LM cell growth in a cell viability assay.

DK-MG = assay type: functional, cell-based, Homo sapiens; conditions: Homo sapiens, DK-MG
Description: SANGER: Inhibition of human DK-MG cell growth in a cell viability assay.

LB996-RCC = assay type: functional, cell-based; conditions: Homo sapiens
Description: SANGER: Inhibition of human LB996-RCC cell growth in a cell viability assay.

RD = assay type: functional, cell-based, Homo sapiens; conditions: Homo sapiens, RD
Description: SANGER: Inhibition of human RD cell growth in a cell viability assay.

ESS-1 = assay type: functional, cell-based, Homo sapiens; conditions: Homo sapiens, ESS-1
Description: SANGER: Inhibition of human ESS-1 cell growth in a cell viability assay.

EFM-19 = assay type: functional, cell-based, Homo sapiens; conditions: Homo sapiens, EFM-19
Description: SANGER: Inhibition of human EFM-19 cell growth in a cell viability assay.

NCI-H2405 = assay type: functional, cell-based, Homo sapiens; conditions: Homo sapiens, NCI-H2405
Description: SANGER: Inhibition of human NCI-H2405 cell growth in a cell viability assay.

RERF-LC-MS = assay type: functional, cell-based, Homo sapiens; conditions: Homo sapiens, RERF-LC-MS
Description: SANGER: Inhibition of human RERF-LC-MS cell growth in a cell viability assay.

MEL-HO = assay type: functional, cell-based, Homo sapiens; conditions: Homo sapiens, MEL-HO
Description: SANGER: Inhibition of human MEL-HO cell growth in a cell viability assay.

RCM-1 = assay type: functional, cell-based, Homo sapiens; conditions: Homo sapiens, RCM-1
Description: SANGER: Inhibition of human RCM-1 cell growth in a cell viability assay.

C32 = assay type: functional, cell-based, Homo sapiens; conditions: Homo sapiens, C32
Description: SANGER: Inhibition of human C32 cell growth in a cell viability assay.

ATN-1 = assay type: functional, cell-based; conditions: Homo sapiens
Description: SANGER: Inhibition of human ATN-1 cell growth in a cell viability assay.

JEG-3 = assay type: functional, cell-based, Homo sapiens; conditions: Homo sapiens, JEG-3
Description: SANGER: Inhibition of human JEG-3 cell growth in a cell viability assay.

NCI-H446 = assay type: functional, cell-based; conditions: Homo sapiens
Description: SANGER: Inhibition of human NCI-H446 cell growth in a cell viability assay.

HGC-27 = assay type: functional, cell-based, Homo sapiens; conditions: Homo sapiens, HGC-27
Description: SANGER: Inhibition of human HGC-27 cell growth in a cell viability assay.

Mo = assay type: functional, cell-based; conditions: Homo sapiens
Description: SANGER: Inhibition of human Mo-T cell growth in a cell viability assay.

DMS-114 = assay type: functional, cell-based, Homo sapiens; conditions: Homo sapiens, DMS-114
HCC1937 = assay type: functional, cell-based, Homo sapiens; conditions: Homo sapiens, HCC1937
Description: SANGER: Inhibition of human HCC1937 cell growth in a cell viability assay.

NKM-1 = assay type: functional, cell-based; conditions: Homo sapiens
Description: SANGER: Inhibition of human NKM-1 cell growth in a cell viability assay.

BFTC-909 = assay type: functional, cell-based, Homo sapiens; conditions: Homo sapiens, BFTC-909
Description: SANGER: Inhibition of human BFTC-909 cell growth in a cell viability assay.

LS-411N = assay type: functional, cell-based, Homo sapiens; conditions: Homo sapiens, LS-411N
L-428 = assay type: functional, cell-based; conditions: Homo sapiens
Description: SANGER: Inhibition of human L-428 cell growth in a cell viability assay.

NCI-H1304 = assay type: functional, cell-based; conditions: Homo sapiens
Description: SANGER: Inhibition of human NCI-H1304 cell growth in a cell viability assay.

CW-2 = assay type: functional, cell-based, Homo sapiens; conditions: Homo sapiens, CW-2
Description: SANGER: Inhibition of human CW-2 cell growth in a cell viability assay.

## COc1cc(F)c(F)c(Nc2ccc(I)cc2F)c1NS(=O)(=O)C1(CC(O)CO)CC1 (configuration not stated)
KP-4
  IC50: > 5 µM
HT-1080
  IC50: 0.538 µM
IST-MES1
  IC50: > 5 µM
NCI-H1993
  IC50: > 5 µM
EKVX
  IC50: > 5 µM
HLE
  IC50: > 5 µM
OE33
  IC50: > 5 µM
LB2241-RCC
  IC50: 3.3 µM
SNB-75
  IC50: > 5 µM
NUGC-3
  IC50: 4.34 µM
SW1088
  IC50: > 5 µM
DBTRG-05MG
  IC50: > 5 µM
KM-H2
  IC50: > 5 µM
KG-1
  IC50: > 5 µM
MDA-MB-361
  IC50: > 5 µM
KYSE-140
  IC50: 2.9 µM
D-392MG
  IC50: > 5 µM
EGI-1
  IC50: 1.31 µM
RCC10RGB
  IC50: > 5 µM
SW13
  IC50: 4.33 µM
SW48
  IC50: > 5 µM
Daoy
  IC50: > 5 µM
IA-LM
  IC50: 4.19 µM
DK-MG
  IC50: 2.83 µM
LB996-RCC
  IC50: > 5 µM
RD
  IC50: 3.28 µM
ESS-1
  IC50: > 5 µM
EFM-19
  IC50: > 5 µM
NCI-H2405
  IC50: 1.87 µM
RERF-LC-MS
  IC50: 1.33 µM
MEL-HO
  IC50: 0.0394 µM
RCM-1
  IC50: 0.136 µM
C32
  IC50: 0.0572 µM
ATN-1
  IC50: > 5 µM
JEG-3
  IC50: > 5 µM
NCI-H446
  IC50: > 5 µM
HGC-27
  IC50: > 5 µM
Mo
  IC50: > 5 µM
DMS-114
  IC50: > 5 µM
HCC1937
  IC50: > 5 µM
NKM-1
  IC50: 2.43 µM
BFTC-909
  IC50: > 5 µM
LS-411N
  IC50: 0.403 µM
L-428
  IC50: > 5 µM
NCI-H1304
  IC50: > 5 µM
CW-2
  IC50: > 5 µM

## COc1ccc(-c2ccc3c(N4CCOC[C@@H]4C)nc(N4CCOC[C@@H]4C)nc3n2)cc1CO [AZD-8055]
KP-4
  IC50: > 2 µM
HT-1080
  IC50: 0.525 µM
IST-MES1
  IC50: > 2 µM
NCI-H1993
  IC50: > 2 µM
EKVX
  IC50: 1.14 µM
HLE
  IC50: 0.748 µM
OE33
  IC50: 0.799 µM
LB2241-RCC
  IC50: 0.302 µM
SNB-75
  IC50: 1.75 µM
NUGC-3
  IC50: 0.707 µM
SW1088
  IC50: 1.37 µM
DBTRG-05MG
  IC50: > 2 µM
KM-H2
  IC50: 1.56 µM
KG-1
  IC50: 0.569 µM
MDA-MB-361
  IC50: 0.509 µM
KYSE-140
  IC50: 0.782 µM
D-392MG
  IC50: > 2 µM
EGI-1
  IC50: 0.135 µM
RCC10RGB
  IC50: > 2 µM
SW13
  IC50: 0.984 µM
SW48
  IC50: 1.11 µM
Daoy
  IC50: 1.1 µM
IA-LM
  IC50: 0.596 µM
DK-MG
  IC50: > 2 µM
LB996-RCC
  IC50: > 2 µM
RD
  IC50: > 2 µM
ESS-1
  IC50: > 2 µM
EFM-19
  IC50: 0.708 µM
NCI-H2405
  IC50: 1.15 µM
RERF-LC-MS
  IC50: > 2 µM
MEL-HO
  IC50: 0.678 µM
RCM-1
  IC50: > 2 µM
C32
  IC50: 0.725 µM
ATN-1
  IC50: 0.706 µM
JEG-3
  IC50: 1.58 µM
NCI-H446
  IC50: 1.33 µM
HGC-27
  IC50: 0.264 µM
Mo
  IC50: > 2 µM
DMS-114
  IC50: 0.937 µM
HCC1937
  IC50: > 2 µM
NKM-1
  IC50: 0.2 µM
BFTC-909
  IC50: 1.29 µM
LS-411N
  IC50: 1.15 µM
L-428
  IC50: > 2 µM
NCI-H1304
  IC50: > 2 µM
CW-2
  IC50: > 2 µM
